# Measurements as given in ChEMBL document CHEMBL1201862, “PubChem BioAssay data set” (2004).
# Activity calls are given as the source filed them.
# Key:
# [1] = molecular target: Nucleotide-binding oligomerization domain-containing protein 2 (Homo sapiens, UniProt Q9HC29); assay: NOD2 signaling inhibitors, cell-based, luminescence, uHTS, HEK293 (AID 1566); type: functional
# HEK293 [2] = assay: cells; type: functional, cell-based; details: Homo sapiens
# HEK293 [3] = assay: cells; type: functional, cell-based; details: Homo sapiens; remark: listed apart in the source
# HEK293 [4] = assay: cells; type: functional, cell-based; details: Homo sapiens; remark: listed apart in the source
# HEK293 [5] = assay: NOD1 signaling inhibitors, primary screen, cell-based, luminescence, uHTS (AID 1578); type: functional; details: Homo sapiens
# HEK293 [6] = assay: NOD2 signaling inhibitors in MDP-stimulated cells, cell-based, uHTS, luminescence (AID 2001); type: functional; details: Homo sapiens
# Cysteine protease ATG4B = molecular target: T1, Cysteine protease ATG4B (Homo sapiens, UniProt Q9Y4P1); type: functional;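 note: Fluorescence-based dose-response confirmation assay measuring inhibition of ATG4B activity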
# T1 sequence (Q9Y4P1 whole entry): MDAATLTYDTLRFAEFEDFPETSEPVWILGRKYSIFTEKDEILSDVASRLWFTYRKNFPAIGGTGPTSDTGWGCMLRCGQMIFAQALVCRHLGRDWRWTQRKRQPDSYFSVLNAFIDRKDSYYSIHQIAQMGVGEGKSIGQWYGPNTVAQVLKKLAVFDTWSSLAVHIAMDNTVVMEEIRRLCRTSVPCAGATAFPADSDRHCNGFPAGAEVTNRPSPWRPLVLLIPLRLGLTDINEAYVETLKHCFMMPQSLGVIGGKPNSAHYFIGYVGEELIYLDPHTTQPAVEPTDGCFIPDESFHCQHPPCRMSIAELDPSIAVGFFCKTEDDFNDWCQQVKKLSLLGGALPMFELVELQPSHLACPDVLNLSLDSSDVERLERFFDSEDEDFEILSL
# Phospholipase A2 = Phospholipase A2 (Homo sapiens, UniProt P04054); type: functional;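 note: confirmatory dose-response counterscreen on phospholipase A2, testing hits that came from an ultra-high-throughput screen for ATG4B inhibitors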
# Protein RecA = molecular target: T2, Protein RecA (Mycobacterium tuberculosis, UniProt P9WHJ3); assay: Fluorescence Cell-Free Homogeneous Dose Retest to Identify Inhibitors of RecA-Intein Splicing Activity. [Related pubchem assays (depositor defined):AID2097, AID2223, AID489010, AID492950]; type: functional
# T2 sequence (P9WHJ3 whole entry): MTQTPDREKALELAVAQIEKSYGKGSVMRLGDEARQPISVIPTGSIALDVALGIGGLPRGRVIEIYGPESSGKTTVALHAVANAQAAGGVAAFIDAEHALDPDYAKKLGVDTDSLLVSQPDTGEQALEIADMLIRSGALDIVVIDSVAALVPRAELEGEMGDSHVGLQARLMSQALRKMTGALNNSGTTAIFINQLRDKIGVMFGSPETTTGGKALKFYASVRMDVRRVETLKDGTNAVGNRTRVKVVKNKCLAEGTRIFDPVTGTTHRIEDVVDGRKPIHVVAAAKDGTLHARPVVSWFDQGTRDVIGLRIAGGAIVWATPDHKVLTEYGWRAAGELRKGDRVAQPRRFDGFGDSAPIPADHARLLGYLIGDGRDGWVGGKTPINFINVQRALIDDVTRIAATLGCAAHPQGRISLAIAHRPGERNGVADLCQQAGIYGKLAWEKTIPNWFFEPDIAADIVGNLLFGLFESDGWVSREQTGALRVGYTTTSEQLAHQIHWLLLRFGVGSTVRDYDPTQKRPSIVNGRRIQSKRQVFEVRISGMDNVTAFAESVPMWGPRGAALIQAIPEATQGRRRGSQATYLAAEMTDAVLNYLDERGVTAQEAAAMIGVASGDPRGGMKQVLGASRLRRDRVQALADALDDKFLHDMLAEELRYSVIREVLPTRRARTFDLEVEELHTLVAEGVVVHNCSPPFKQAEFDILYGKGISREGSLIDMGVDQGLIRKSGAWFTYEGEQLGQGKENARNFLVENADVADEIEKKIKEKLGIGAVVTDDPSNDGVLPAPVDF
# [7] = molecular target: Eukaryotic translation initiation factor 4E (Mus musculus, UniProt P63073); assay: eIF4E–eIF4G protein interaction inhibitors, dose response, biochemical, TR-FRET (AID 855); type: functional;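 note: potency for disrupting eIF4E binding to eIF4GI seen as loss of FRET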
# [8] = molecular target: T3, Replicative DNA helicase DnaB (Mycobacterium tuberculosis, UniProt P9WMR3); assay: DnaB intein splicing inhibitors, dose response, biochemical, cell-free fluorescence (AID 449749); type: functional
# T3 sequence (P9WMR3 whole entry): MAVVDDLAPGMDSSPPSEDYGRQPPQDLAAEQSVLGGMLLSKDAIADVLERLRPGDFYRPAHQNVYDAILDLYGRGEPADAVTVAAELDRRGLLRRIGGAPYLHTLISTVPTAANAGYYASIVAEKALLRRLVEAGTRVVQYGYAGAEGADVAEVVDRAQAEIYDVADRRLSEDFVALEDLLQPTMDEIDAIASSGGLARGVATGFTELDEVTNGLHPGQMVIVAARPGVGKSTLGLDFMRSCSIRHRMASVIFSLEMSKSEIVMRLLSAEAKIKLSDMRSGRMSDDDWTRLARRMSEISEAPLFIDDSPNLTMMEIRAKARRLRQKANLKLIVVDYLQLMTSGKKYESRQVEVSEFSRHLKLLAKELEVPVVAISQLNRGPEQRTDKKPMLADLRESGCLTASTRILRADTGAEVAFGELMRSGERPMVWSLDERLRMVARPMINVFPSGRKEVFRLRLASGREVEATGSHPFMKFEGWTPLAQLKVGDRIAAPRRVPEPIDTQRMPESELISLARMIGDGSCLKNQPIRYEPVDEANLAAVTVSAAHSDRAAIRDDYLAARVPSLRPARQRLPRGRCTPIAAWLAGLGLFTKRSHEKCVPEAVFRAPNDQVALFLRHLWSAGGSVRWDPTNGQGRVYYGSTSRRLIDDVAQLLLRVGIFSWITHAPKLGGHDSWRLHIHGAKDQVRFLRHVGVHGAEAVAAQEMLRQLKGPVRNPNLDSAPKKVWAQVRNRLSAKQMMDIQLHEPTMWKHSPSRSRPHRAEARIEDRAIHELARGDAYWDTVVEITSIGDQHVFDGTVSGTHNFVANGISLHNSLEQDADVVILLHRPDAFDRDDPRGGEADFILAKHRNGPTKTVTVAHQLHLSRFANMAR
# Chain of Nucleotide-binding oligomerization domain-containing protein 2 (Q9HC29 whole entry, the tested form may be a part): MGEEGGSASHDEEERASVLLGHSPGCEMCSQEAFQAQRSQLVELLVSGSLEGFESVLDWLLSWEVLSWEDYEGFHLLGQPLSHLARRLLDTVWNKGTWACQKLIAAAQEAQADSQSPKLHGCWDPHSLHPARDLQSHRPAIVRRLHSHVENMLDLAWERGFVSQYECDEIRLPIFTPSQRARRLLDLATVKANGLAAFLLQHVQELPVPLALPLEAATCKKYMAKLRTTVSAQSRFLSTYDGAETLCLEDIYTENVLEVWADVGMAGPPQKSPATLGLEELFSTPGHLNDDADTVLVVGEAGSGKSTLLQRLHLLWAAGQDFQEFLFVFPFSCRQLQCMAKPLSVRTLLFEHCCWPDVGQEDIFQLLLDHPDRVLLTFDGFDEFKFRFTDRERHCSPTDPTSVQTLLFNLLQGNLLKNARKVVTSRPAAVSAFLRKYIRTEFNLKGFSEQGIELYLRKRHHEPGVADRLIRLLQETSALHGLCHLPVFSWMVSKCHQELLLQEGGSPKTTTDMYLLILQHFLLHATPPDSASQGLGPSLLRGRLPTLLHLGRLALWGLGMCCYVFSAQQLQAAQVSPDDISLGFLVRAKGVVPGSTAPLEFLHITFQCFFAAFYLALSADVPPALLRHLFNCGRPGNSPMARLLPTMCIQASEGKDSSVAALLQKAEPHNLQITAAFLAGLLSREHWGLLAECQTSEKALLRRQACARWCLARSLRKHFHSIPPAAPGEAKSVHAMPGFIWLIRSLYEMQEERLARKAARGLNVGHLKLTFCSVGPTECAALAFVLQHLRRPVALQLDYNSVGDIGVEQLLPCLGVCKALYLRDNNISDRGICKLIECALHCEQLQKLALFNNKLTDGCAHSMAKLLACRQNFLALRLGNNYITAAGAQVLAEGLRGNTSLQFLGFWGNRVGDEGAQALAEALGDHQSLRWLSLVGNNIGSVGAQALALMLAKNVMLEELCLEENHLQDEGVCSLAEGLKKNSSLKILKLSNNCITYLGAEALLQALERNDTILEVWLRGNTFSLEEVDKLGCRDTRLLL
# Chain of Phospholipase A2 (P04054 whole entry): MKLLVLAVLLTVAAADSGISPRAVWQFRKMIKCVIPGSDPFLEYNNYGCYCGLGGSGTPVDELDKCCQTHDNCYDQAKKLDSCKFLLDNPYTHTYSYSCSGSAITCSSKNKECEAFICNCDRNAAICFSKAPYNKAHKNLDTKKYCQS
# Chain of Eukaryotic translation initiation factor 4E (P63073 whole entry): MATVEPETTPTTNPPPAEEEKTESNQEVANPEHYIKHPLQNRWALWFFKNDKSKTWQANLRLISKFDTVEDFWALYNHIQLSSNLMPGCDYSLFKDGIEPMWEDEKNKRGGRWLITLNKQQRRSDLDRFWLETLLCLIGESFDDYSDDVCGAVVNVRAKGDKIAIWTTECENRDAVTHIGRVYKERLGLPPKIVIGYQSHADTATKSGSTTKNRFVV
Structure (SMILES),EC50 [1],IC50 (HEK293 [2]),IC50 (HEK293 [3]),IC50 (HEK293 [4]),EC50 (HEK293 [5]),IC50 (HEK293 [6]),IC50 (Cysteine protease ATG4B),IC50 (Phospholipase A2),EC50 (Protein RecA),IC50 [7],AC50 [8]
Cc1cc(C(=O)CSc2nnc(-c3ccco3)o2)c(C)n1-c1ccc2c(c1)OCCO2,> 20 µM (inactive),> 20 µM (inactive),> 20 µM (inactive),13.3 µM (active),5.37 µM (active),14.5 µM (inactive),,,,,
COc1ccc2nc(N3CCCCC3)c(/C=C3\SC(=S)NC3=O)cc2c1,16.2 µM (active),19.5 µM (active),> 20 µM (inactive),4.9 µM (active),2.17 µM (active),4.26 µM (inactive),4.24 µM (active),2.47 µM (active),,,
N#Cc1c(Cl)c(Cl)c2nnc(-c3ccc(Br)cc3)n2c1Cl,,,,,,,,,9.3 µM (active),> 64 µM (inactive),10.2 µM (active)
